One compound from patent US9248085B2, “Effective depilatory article” (The Procter & Gamble Company, priority 2011, dated 2016) can be followed below.

The nature of this experiment: Hair removal from the skin and skin irritation by thioglycolate salts (statement, no method). It counts as in vivo. The settings on record: even at low doses.

Take `O=C([O-])CS.[K+]` [potassium thioglycolate]: the “hair removal from the skin” value is reported as “effective at removing hair from the skin”.
